Source: patent publication US20050089509A1 (priority 2003, published 2005)
“And” between values parts separate entries of the source, which are not always exact repeats. Identical values can stand only once. Like-named read-outs stand apart in the source and are kept apart here.

Key:
F. novicida [1] = test system: F. novicida; parameters: species or system F. tularensis subsp. novicida; conditions: in vivo
F. novicida [2] = test system: F. novicida; parameters: species or system F. tularensis subsp. novicida; conditions: in vivo; remark: listed apart in the source
F. novicida [3] = type: cell-based, F. tularensis subsp. novicida
F. novicida [4] = test system: F. novicida; parameters: species or system F. tularensis subsp. novicida; conditions: in vivo; remark: listed apart in the source
[5] = mouse, in vivo
[6] = cited from earlier work
J774 cells = type: cell-based, murine

Row | Substance | survival (F. novicida [1]) [%] | survival / control of the disease (in words) (F. novicida [1]) | bacteria in the liver and spleen (F. novicida [2]) | bacteria recovered from the spleens (F. novicida [2]) | animals succumbed to the infection by day (F. novicida [1]) [days] | intracellular bacterial replication in macrophages (F. novicida [3]) | time to death (F. novicida [4]) | toxicity [5] | efficacy of route of delivery ([5]; ip) | half-life in vivo [6] | toxicity ([6]; in vivo) | TNF-α detected (in words) (J774 cells) | TNF-α increase (J774 cells)
1 | gentamicin | 17 | ineffective in controlling the disease |  |  |  |  |  |  |  |  |  |  | 
2 | IL-12 |  |  | marked reduction of bacteria | no bacteria recovered | ≤ 6 | did not inhibit bacterial replication | significantly increased the time to death | no toxicity observed | most efficacious | longer sustainable half-life than IFN-γ | very little toxicity | very little TNF-α | 
3 | IFN-γ |  |  |  |  |  | markedly inhibited replication of bacteria |  |  |  |  |  |  | 9 fold and 18 fold
